Numbering of substitutions follows the chain as printed. Where a SMILES comes first, the peptide text is derived from it.
What was measured:
Y91Q-rPepT1 = target: T1, Y91Q-rPepT1 (Oryctolagus cuniculus, UniProt P36836, Y91Q); assay: Competition of [3H]-D-Phe-L-Gln uptake into Xenopus oocytes, Ki; assay type: cell-based, rabbit; conditions: pHout 7.4; against 0.4 μM [3H]-D-Phe-L-Gln uptake
T1 construct: expressed in transfected cells; host or cells: Xenopus laevis oocytes injected with cRNA
T1 sequence (P36836 1-707 Y91Q): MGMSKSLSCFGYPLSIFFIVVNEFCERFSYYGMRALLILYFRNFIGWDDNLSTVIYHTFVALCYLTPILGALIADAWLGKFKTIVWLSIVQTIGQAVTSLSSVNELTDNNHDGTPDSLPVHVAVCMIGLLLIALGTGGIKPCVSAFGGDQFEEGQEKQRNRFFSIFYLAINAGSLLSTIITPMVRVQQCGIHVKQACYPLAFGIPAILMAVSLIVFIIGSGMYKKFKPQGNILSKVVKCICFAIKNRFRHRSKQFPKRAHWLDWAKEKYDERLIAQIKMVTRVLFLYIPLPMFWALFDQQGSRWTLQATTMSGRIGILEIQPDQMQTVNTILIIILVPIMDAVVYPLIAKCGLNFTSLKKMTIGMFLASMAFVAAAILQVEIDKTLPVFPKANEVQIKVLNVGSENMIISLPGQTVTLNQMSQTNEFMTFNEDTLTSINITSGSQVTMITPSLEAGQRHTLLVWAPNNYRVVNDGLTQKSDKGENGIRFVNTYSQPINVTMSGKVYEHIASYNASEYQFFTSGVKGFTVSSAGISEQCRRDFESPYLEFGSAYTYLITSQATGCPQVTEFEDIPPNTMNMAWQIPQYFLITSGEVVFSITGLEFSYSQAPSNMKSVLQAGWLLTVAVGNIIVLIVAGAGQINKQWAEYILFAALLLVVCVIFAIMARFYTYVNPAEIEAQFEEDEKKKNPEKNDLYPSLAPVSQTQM
Protocol: (§1) rPepT1 constructs were linearised with XbaI (New England Biolabs, UK) and cRNA generated by in vitro transcription (T7 mMessage mMachine, Ambion, Cambridgeshire, UK). Xenopus laevis oocytes were obtained under MS222 anaesthesia (0.2%, w/v) in accordance with the UK Animals (Scientific Procedures) Act, 1986, and maintained at 18 °C in modified Barth's medium (88 mM NaCl, 1 mM KCl, 0.82 mM MgSO4, 2.4 mM NaHCO3, 0.42 mM CaCl2, 10 mM Hepes, 5 mM sodium pyruvate, 50 μg ml^−1 gentamicin (Fluka, Poole, UK), adjusted to pH 7.6 with 1 M NaOH). Transport measurements were performed at least 72 h after micro-injection of oocytes with 27nl cRNA (1 μg/μl), with medium changed daily.
(§2) Uptake of [^3H]-D-Phe-L-Gln (17.4 Ci/mmole, custom synthesised, Cambridge Research Biochemicals, Stockton-on-Tees, UK) was performed as previously described ([Meredith, 2004]). Briefly, 5 oocytes were incubated in 100 μl of uptake medium (95 mM NaCl, 2 mM KCl, 1 mM CaCl2, 0.42 mM MgCl2, 10 mM Tris/Hepes pH 7.4 or Tris/Mes pH 5.5) with tracer (0.4 μM) [^3H]-D-Phe-L-Gln. After incubation, the oocytes were washed sequentially five times in 1 ml of ice-cold 120 mM NaCl solution, lysed individually with 100 μl 2% (w/v) SDS and liquid scintillation counted. As a control non-injected oocytes were also incubated in uptake medium with D-Phe-L-Gln as above.
(§3) The affinity of wild-type and mutant rPepT1 transporters were assessed by competition studies with 0.4 μM [^3H]-D-Phe-L-Gln and Gly-L-Gln present in the uptake medium in concentrations from 0 to 2 mM using the protocol above, and the Ki calculated using the method of [Deves and Boyd (1989)].

Y345F-rPepT1 = target: T2, Y345F-rPepT1 (Oryctolagus cuniculus, UniProt P36836, Y345F); assay: as above; assay type: cell-based, rabbit; conditions: against 0.4 μM [3H]-D-Phe-L-Gln uptake
T2 construct: expressed in transfected cells; host or cells: Xenopus laevis oocytes injected with cRNA
T2 sequence (P36836 1-707 Y345F): T1 sequence (P36836 1-707 Y91Q) with Q91Y, Y345F
Protocol: as §1, §2, §3

Ki (Y91Q-rPepT1): 30 ± 5 µM
Ki (Y345F-rPepT1; pHout 5.5): 320 ± 70 µM
Ki (Y345F-rPepT1; pHout 7.4): 180 ± 50 µM
SMILES: NCC(=O)N[C@@H](CCC(N)=O)C(=O)O [Gly-L-Gln] (H-Gly-Gln-OH)

From PMC3510438, “The transmembrane tyrosines Y56, Y91 and Y167 play important roles in determining the affinity and transport rate of the rabbit proton-coupled peptide transporter PepT1” (The International Journal of Biochemistry & Cell Biology, 2009)
